Common to all, as to test: growth of human tumour cells (NCI), 48 h
For test [1], the system named is UACC-62 melanoma.
For test [2], the system named is OVCAR-5 ovarian.
The subject of test [3] is HOP-92 NSCLC.
The test system of test [4] is K-562 leukemia.
Test [5] has as its system LOX IMVI melanoma.
Test [6] has as its system IGROV1 ovarian.
The subject of test [7] is TK-10 renal.
The test system of test [8] is NCI-H23 lung.
The subject of test [9] is SK-MEL-2 melanoma.
The subject of test [10] is SK-OV-3 ovarian.

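These data come from cells grown in 96-well plates and exposed to compound for 48 hours at five concentrations. Here, GI50 denotes the concentration required for 50% inhibition of growth. TGI: total growth inhibition.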

As for `CC1(C)N=C(N)N=C(N)N1c1cccc(CCc2ccccc2)c1`, the GI50 was 0.49 µM in test [1]; 2.65 µM in test [3]; 0.299 µM in test [4]; 0.269 µM in [5]; 0.113 µM in test [6]; 1.9 µM in test [7]. Also, the GI50 in test [8] was 0.551 µM; in [9], 1.94 µM; in [10], 5.5 µM. The TGI in test [1] was 20.4 µM; in [2], more than 100 µM; in test [3], 34.4 µM; in [4], more than 100 µM; in test [5] it was more than 100 µM; in test [6] it was 17.6 µM. The TGI is more than 100 µM in test [7], more than 100 µM in test [8], more than 67.5 µM in test [9] and more than 100 µM in [10].
On to `CC1(C)C2CCC13C(=O)C1OC3(C2)C2C(=O)c3c(ccc4c3ccc3ccccc34)C(=O)C12` (centres undefined), for which the GI50 in test [1] was more than 100 µM; in [2], more than 100 µM; in test [3], more than 100 µM; in test [4], 1.12 µM; in [5], 50.9 µM; in test [6], more than 100 µM. Moreover, the GI50 in [7] was more than 87.5 µM; in test [8], more than 48.4 µM; in [9], more than 100 µM; in test [10] it was more than 100 µM. Also, the TGI was more than 100 µM in test [1]; more than 100 µM in test [2]; more than 100 µM in test [3]; 82.1 µM in test [4]; more than 100 µM in test [5]; more than 100 µM in test [6]. The TGI is more than 100 µM in [7], more than 81.5 µM in test [8], more than 100 µM in [9] and more than 100 µM in [10].
Regarding `Nn1c(-c2ccc(Cl)cc2)nc2c(-c3ccc(Cl)cc3)nc3ccc(Cl)cc3c2c1=O`, the GI50 was 32.2 µM in test [1]; more than 100 µM in [2]; 13.6 µM in test [3]; 11.4 µM in test [4]; 5.77 µM in [5]; 4.01 µM in test [6]. The GI50 in test [7] was 22.4 µM; in test [8], 33 µM; in test [9] it was 25.2 µM; in test [10] it was 14.5 µM. The TGI is more than 100 µM in [1]; more than 100 µM in [2]; 31.6 µM in [3]; 48.5 µM in test [4]; 32.9 µM in test [5]; 32.8 µM in [6]. Further, the TGI was 58.4 µM in [7], more than 100 µM in test [8], more than 100 µM in test [9] and 40.3 µM in test [10].
On to `CN1CC[C@H](c2c(O)cc(O)c3c(=O)cc(-c4ccccc4Cl)oc23)[C@H](O)C1`, for which the GI50 is 0.0515 µM in test [1]; 0.0533 µM in test [2]; 0.0693 µM in test [3]; 0.225 µM in [4]; 0.00602 µM in test [5]; 0.0414 µM in test [6]. The GI50 in test [7] was 0.0999 µM; in [8], 0.0793 µM; in [9] it was 0.0668 µM; in test [10], 0.49 µM. Also, the TGI is 0.164 µM in [1]; more than 10 µM in test [2]; 0.524 µM in [3]; more than 10 µM in [4]; more than 10 µM in test [5]; more than 10 µM in test [6]. Further, the TGI in test [7] is more than 10 µM; in [8] it was 0.609 µM; in test [9], 0.26 µM; in test [10], more than 10 µM.
Consider `O=C(O)CSc1n[nH]c(-c2ccco2)n1`, for which the TGI in test [1], in [2], in [3], in [4], in [5] and in test [6] was more than 100 µM throughout. Also, the TGI in test [7], in test [8], in test [9] and in test [10] was more than 100 µM each time.
As to `CCOc1ccc2cc(-c3nn(CC4CCNCC4)c4ncnc(N)c34)ccc2c1`, the GI50 in [1] was 16.9 µM; in test [2], 14.9 µM; in test [3] it was 4.96 µM; in test [4], 4.69 µM; in test [5] it was 26.8 µM; in test [6], 11.7 µM. Also, the GI50 was 16.8 µM in [7], 13.4 µM in [8], 15.8 µM in test [9] and 17.3 µM in [10]. Also, the TGI is 32.1 µM in test [1]; 34.5 µM in test [2]; 24.9 µM in [3]; 17.1 µM in [4]; more than 100 µM in test [5]; 27.8 µM in test [6]. The TGI in [7] came to 38.8 µM; in test [8], 31.9 µM; in test [9] it was 29.8 µM; in test [10] it was 39.3 µM.

For the origin of these results see PubChem BioAssay (NCI).
